Assay results: paper PMC6081452, “Downstream Products are Potent Inhibitors of the Heparan Sulfate 2-O-Sulfotransferase” (Scientific Reports, 2018)

Molecular target: T1, glyc-HS2ST (glycosylated human HS2ST), WT (Homo sapiens, UniProt Q7LGA3)
T1 construct: the human HS2ST catalytic domain region comprising of 328 amino acid residues; His8 (N, cleaved yes); AviTag (N, cleaved yes); superfolder GFP (N, cleaved yes); made in house; host or cells: HEK293-F (transient transfection, secreted)
T1 sequence (Q7LGA3 29-356 limits assumed): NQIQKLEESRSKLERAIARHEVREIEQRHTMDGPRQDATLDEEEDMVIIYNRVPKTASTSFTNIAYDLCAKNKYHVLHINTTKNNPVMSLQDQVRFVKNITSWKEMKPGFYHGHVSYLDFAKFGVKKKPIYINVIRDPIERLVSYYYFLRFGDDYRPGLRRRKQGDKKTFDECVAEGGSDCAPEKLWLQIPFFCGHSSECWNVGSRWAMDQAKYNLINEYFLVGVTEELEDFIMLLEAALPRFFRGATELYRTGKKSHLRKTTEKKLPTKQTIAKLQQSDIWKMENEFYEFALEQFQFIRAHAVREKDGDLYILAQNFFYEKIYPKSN
Test: BLI equilibrium binding, glyc-HS2ST WT
Settings: BLI saturation binding curves, biotin-PEG4-linked hexasaccharide immobilised on sensor, n = 3, ± standard error of fit, 25 °C, PBS pH 7.8
Text: HS-protein binding studies often utilize biologically-derived oligosaccharides of heterogeneous length and sulfation[34],[35]; however, the synthesis of oligosaccharides with defined length and specific sulfation patterns has recently become possible. We employed biolayer interferometry (BLI) to determine equilibrium surface binding constants (KD) for HS2ST with synthetic HS hexasaccharides (Fig. 1 and Supplementary Table 1). The HS compounds were attached to the BLI biosensor surface to conserve sample and to ensure a significant signal upon protein binding. The HS compounds contained a biotinylated PEG4 linker at the reducing terminus, enhancing the likelihood of a consistent presentation of the linear glycan on the sensor surface, in contrast to immobilizations via intra-chain modifications. […]
An expression construct was generated encoding the truncated catalytic domain of human HS2ST as an NH2-terminal fusion protein in the pGEn2 expression vector essentially as described in prior studies. […] The recombinant human HS2ST was expressed as a soluble secreted protein by transient transfection of suspension culture HEK293-F cells (FreeStyle^TM 293-Fcells, Thermo Fisher Scientific, Waltham MA) maintained at 0.5–3.0 × 10^6 cells/ml in a humidified CO2 platform shaker incubator at 37 °C with 55% humidity. […]

## GlcNS-GlcA-GlcNS-IdoA2S-GlcNS-GlcA~ [Compound 2]
  Kd: 138 ± 19 nM
